What was measured:
[1] = test system: M3 cells (HT1080 transfected with cytosine deaminase under PGK-1 promoter with 3 copies of P24); assay: Hypoxia-induced pro-drug sensitisation, M3 cells; type: cell-based; conditions: 16 hours hypoxic exposure, 24 hours drug, 96 hour growth delay
Experimental: The PGK-1 hypoxia response element was evaluated within the context of the PGK-1 gene promoter (M3), the 9-27 gene promoter (9-3C) and the thymidine kinase gene promoter (sTK5). […] The promoters and PGK-1 hypoxia response elements were placed upstream of genes encoding the endothelial CD2 surface protein and the negative selectable marker cytosine deaminase. The 9-27 and thymidine kinase promoters were each used with 3 copies of the P18 PGK-1 element and the PGK-1 gene promoter was used with 3 copies of the P24 PGK-1 element. Transfected cells (9-3C and M3) as described in Example 9 were tested for sensitivity to 5-FC. Cells were subjected to hypoxic exposure (16 hours), followed by exposure to 5-FC or 5-FU (24 hours), followed by a 96 hour growth delay.

[2] = test system: 9-3C cells (HT1080 transfected with cytosine deaminase under 9-27 promoter with 3 copies of P18); assay: Hypoxia-induced pro-drug sensitisation, 9-3C cells; type: cell-based; conditions: 16 hours hypoxic exposure, 24 hours drug, 96 hour growth delay
Experimental: The PGK-1 hypoxia response element was evaluated within the context of the PGK-1 gene promoter (M3), the 9-27 gene promoter (9-3C) and the thymidine kinase gene promoter (sTK5).
The constructs were similar to those described in Example 7. The promoters and PGK-1 hypoxia response elements were placed upstream of genes encoding the endothelial CD2 surface protein and the negative selectable marker cytosine deaminase. The 9-27 and thymidine kinase promoters were each used with 3 copies of the P18 PGK-1 element and the PGK-1 gene promoter was used with 3 copies of the P24 PGK-1 element.
(§1) Transfected cells (9-3C and M3) as described in Example 9 were tested for sensitivity to 5-FC. Cells were subjected to hypoxic exposure (16 hours), followed by exposure to 5-FC or 5-FU (24 hours), followed by a 96 hour growth delay.

[3] = test system: MCF-7 wild-type and thymidine phosphorylase transfectant clones; assay: Drug sensitivity of clones -4, -7, -12, -16, +4 compared with wild type; type: cell-based, human; conditions: FIG. 6
Description: (§2) Human breast cancer cells of the cell line MCF-7 were transfected with a gene for thymidine phosphorylase. […] The gene is suitable for linking up with hypoxically-inducible promoters/enhancers.
(§3) Results of drug sensitivity experiments are shown in FIGS. 3-7. -7, -4, -12, +4 and +16 are all derivatives of MCF-7 which have been transfected with the thymidine phosphorylase gene.
(§4) Note that there is a log scale and therefore the IC50 (the concentration of drug required to inhibit growth by 50%) is more than 100 times lower for the transfectants -12 and -4. Therefore, the expression of one gene at a higher level can make these cells 100 times more sensitive to chemotherapy. Clearly there is variation depending on the level of expression and therefore we want to be able to switch on as high as possible. […] This means that it is the activation step that is important rather than downstream events.

[4] = test system: MCF-7(-4) cells transfected with thymidine phosphorylase gene; assay: Drug sensitivity of thymidine phosphorylase transfectant -4; type: cell-based, human; conditions: survival curve, FIG. 3
Description: as §2, §3, §4

[5] = test system: control (Wt) non-transfected HT1080 cells and transfectant cells (9-3C, M3); assay: Drug sensitivity after hypoxic or normoxic treatment, control and transfectants; type: cell-based; conditions: 16 hours exposure, 24 hours drug, 96 hour growth delay
Experimental: as §1

[6] = test system: endogenous mouse LDH-A gene expression in L cells; assay: RNA analysis of endogenous LDH-A gene expression; type: cell-based; conditions: 100 μM, 16 hours, hypoxia 1% O2
Experimental: (§5) The cell lines used were HepG2 (human hepatoma), HeLa (human cervical carcinoma) and L cells (mouse fibroblast) grown in minimal essential medium, with Earle's salts, supplemented with fetal bovine serum (10%), glutamine (2 mM), penicillin (50 units/ml) and streptomycin sulfate (50 μg/ml). For assay of endogenous gene expression, and for preparation of nuclear extracts, cells were grown to approximately 70% confluence. […]
(§6) RNA was extracted, analysed by RNase protection, and quantitated as previously described (Pugh et al 1991). […]
(§7) For assay of endogenous PGK-1 gene expression 50 μg of RNA extracted from HepG2 cells was hybridised with a riboprobe which consisted of 121 bp from the 5' end of the exon 3 of the human PGK-1 gene, together with 68 bp of adjacent intron (obtained by PCR of genomic DNA and cloning by standard methods). […] In these experiments a small quantity (0.5 μg) of RNA extracted from K562 cells (a human […] cell line which expresses a globin mRNA abundantly) was added to each sample before hybridisation, and the samples were probed concurrently with the α97 probe in addition to the PGK-1 or LDH-A probe. […]

[7] = test system: endogenous human PGK-1 gene expression in HepG2 cells; assay: RNA analysis of endogenous PGK-1 gene expression; type: cell-based; conditions: 100 μM, 16 hours, hypoxia 1% O2
Experimental: as §5, §6, §7

Nc1nc(=O)[nH]cc1F [5-FC, 5-fluorocytosine]
sensitivity post-hypoxia [1]: significantly more sensitive | sensitivity post-hypoxia [2]: significantly more sensitive

O=c1[nH]cc(F)c(=O)[nH]1 [5FU, 5-fluorouracil]
difference in sensitivity of the cells [3]: very little difference | difference in sensitivity between WT and transfectant [4]: relatively little difference | difference in sensitivity following hypoxic or normoxic treatment [5]: no significant difference

C[C@@H]1C[C@@H]([C@H](O)CC2CC(=O)NC(=O)C2)C(=O)[C@@H](C)C1 [cycloheximide]
effect on hypoxic induction of gene expression [6]: abrogated the response to hypoxia | effect on hypoxic induction of gene expression [7]: abrogated the response to hypoxia

From patent publication US6265390A, “Methods for expressing nucleic acid sequences using nucleic acid constructs comprising hypoxia response elements” (Oxford Biomedica (UK) Limited, priority 1994, dated 2001)
